Data: patent US11472788B2, “Benzoimidazoles as selective inhibitors of indoleamine 2,3-dioxygenases” (BEIGENE, LTD., priority 2017, dated 2022)

Biological target: cellular IDO1 in HeLa cells (Homo sapiens (Human), UniProt P14902)
Experiment: HeLa Cell-Based IDO1 Kyn (Kynurenine) Production Assay
Conditions: IFN-γ induced IDO1, 48 hours incubation, Kyn absorbance at 480 nm
Experimental: HeLa Cell-Based IDO1 Kyn (Kynurenine) Production Assay:
The inhibitory activity of IDO1 inhibitors is determined by using a colorimetric reaction to measure Kyn generated from L-Trp (L-Tryptophon) oxidation by cellular IDO1 in HeLa cells after induction of IDO1 expression by IFN-γ.
Hela cells were obtained from the American Type Culture Collection and recovered in 10% FBS-containing phenol red-free DMEM medium. Cells were plated onto a 96-well plate (100 μl/well) at 8000 cells per well and kept at 37° C. in a humidified incubator supplied with 5% CO2. 4 hours later, Human recombinant IFN-γ (8901SC, CST) was added to cells (final concentration 100 ng/mL) to stimulate endogenous IDOL. Compounds at different concentrations diluted in dimethylsulfoxide (DMSO) were added simultaneously with IFN-γ and 0.4 mM L-Trp. Cells were kept at 37° C. in a humidified incubator supplied with 5% CO2. After 48 hours of incubation, 100 μl supernatant from each well was removed to a new plate. The protein in the medium was precipitated with the addition of 8 μl 6N trichloroacetic acid. The plate was incubated at 60° C. for 30 minutes and then centrifugation at 2500 rpm for 10 minutes to remove sediments. 80 μl supernatants were carefully removed to a new clean plate and added with an equal volume of 2% 4-(Dimethylamino)benzaldehyde (D2004, sigma) dissolved in glacial acetic acid. The absorbance at 480 nm wavelength derived from Kyn was measured using a PHERAstar FS plate reader (BMG LABTECH). The IC5C for each compound was derived from fitting the dose-response data to the four-parameter logistic model by using XLfit software (IDBS).

cellular IDO1 in HeLa cells, sequence (P14902 whole entry): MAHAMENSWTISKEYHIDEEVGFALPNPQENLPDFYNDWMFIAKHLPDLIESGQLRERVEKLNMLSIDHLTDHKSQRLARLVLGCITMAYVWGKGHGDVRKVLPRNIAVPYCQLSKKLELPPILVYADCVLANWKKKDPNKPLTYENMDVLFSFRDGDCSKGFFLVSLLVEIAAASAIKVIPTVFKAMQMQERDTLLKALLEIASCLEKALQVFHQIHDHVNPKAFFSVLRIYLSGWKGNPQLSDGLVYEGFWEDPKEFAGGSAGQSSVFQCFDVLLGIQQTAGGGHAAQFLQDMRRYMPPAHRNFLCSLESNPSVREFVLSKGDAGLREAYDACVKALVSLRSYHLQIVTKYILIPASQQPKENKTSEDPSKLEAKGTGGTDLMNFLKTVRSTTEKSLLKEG

EC50 [nM]	SMILES
16.4	CC(c1nc2c(F)c(F)cc(Cl)c2[nH]1)[C@H]1CC[C@@H](c2ccnc3ccc(F)cc32)CC1 (some centres unmarked) [Example B172, 4-((1s,4s)-4-(1-(7-chloro-4,5-difluoro-1H-benzo[d]imidazol-2-yl)ethyl)cyclohexyl)-6-fluoroquinoline]
12.7	C[C@@H](c1nc2cc3ccccc3cc2[nH]1)[C@H]1CC[C@@H](c2ccnc3ccc(F)cc32)CC1 [Example B173, 2-((R)-1-((1s,4S)-4-(6-fluoroquinolin-4-yl)cyclohexyl)ethyl)-1H-naphtho[2,3-d]imidazole]
283	C[C@@H](c1nc2ccc(S(C)(=O)=O)cc2[nH]1)[C@H]1CC[C@H](c2ccnc3ccc(F)cc32)CC1 [Example B178, 6-fluoro-4-((1R,4r)-4-((R)-1-(6-(methylsulfonyl)-1H-benzo[d]imidazol-2-yl)ethyl)cyclohexyl)quinoline]
36.2	CC(=O)Nc1ccc2nc([C@H](C)[C@H]3CC[C@@H](c4ccnc5ccc(F)cc54)CC3)[nH]c2c1 [Example B179, N-(2-((R)-1-((1r,4R)-4-(6-fluoroquinolin-4-yl)cyclohexyl)ethyl)-1H-benzo[d]imidazol-6-yl)acetamide]
384	C[C@@H](c1nc2ccc(NS(C)(=O)=O)cc2[nH]1)[C@H]1CC[C@@H](c2ccnc3ccc(F)cc32)CC1 [Example B180, N-(2-((R)-1-((1r,4R)-4-(6-fluoroquinolin-4-yl)cyclohexyl)ethyl)-1H-benzo[d]imidazol-6-yl)methanesulfonamide]
86.7	CC(c1nc2cc(C(=O)Nc3ccccc3)ccc2[nH]1)[C@H]1CC[C@@H](c2ccnc3ccc(F)cc32)CC1 (some centres unmarked) [Example B182, 2-(1-((1s,4s)-4-(6-fluoroquinolin-4-yl)cyclohexyl)ethyl)-N-phenyl-1H-benzo[d]imidazole-5-carboxamide]
> 1000	CC(c1nc2cc(C(=O)NCC3(O)CCC3)ccc2[nH]1)[C@H]1CC[C@@H](c2ccnc3ccc(F)cc32)CC1 (some centres unmarked) [Example B183, 2-(1-((1s,4s)-4-(6-fluoroquinolin-4-yl)cyclohexyl)ethyl)-N-((1-hydroxycyclobutyl)methyl)-1H-benzo[d]imidazole-5-carboxamide]
> 1000	CC(c1nc2cc(C(=O)NCC3(O)CCC3)ccc2[nH]1)[C@H]1CC[C@H](c2ccnc3ccc(F)cc32)CC1 (some centres unmarked) [Example B184, 2-(1-((1r,4r)-4-(6-fluoroquinolin-4-yl)cyclohexyl)ethyl)-N-((1-hydroxycyclobutyl)methyl)-1H-benzo[d]imidazole-5-carboxamide]
122	COC1CCC(NC(=O)c2ccc3[nH]c(C(C)[C@H]4CC[C@@H](c5ccnc6ccc(F)cc65)CC4)nc3c2)CC1 (some centres unmarked) [Example B185, 2-(1-((1s,4s)-4-(6-fluoroquinolin-4-yl)cyclohexyl)ethyl)-N-(4-methoxycyclohexyl)-1H-benzo[d]imidazole-5-carboxamide]
193	COC1CCC(NC(=O)c2ccc3[nH]c(C(C)[C@H]4CC[C@H](c5ccnc6ccc(F)cc65)CC4)nc3c2)CC1 (some centres unmarked) [Example B186, 2-(1-((1r,4r)-4-(6-fluoroquinolin-4-yl)cyclohexyl)ethyl)-N-(4-methoxycyclohexyl)-1H-benzo[d]imidazole-5-carboxamide]
45.9	C[C@@H](c1nc2cc(F)c(F)c(Cl)c2[nH]1)[C@H]1CC[C@@H](c2ccnc3ccc(F)cc32)CC1 [Example B189, 4-((1R,4s)-4-((S)-1-(7-chloro-5,6-difluoro-1H-benzo[d]imidazol-2-yl)ethyl)cyclohexyl)-6-fluoroquinoline]
5.74	C[C@@H](c1nc2cc(F)c(F)c(Cl)c2[nH]1)[C@H]1CC[C@H](c2ccnc3ccc(F)cc32)CC1 [Example B190, 4-((1R,4r)-4-((R)-1-(7-chloro-5,6-difluoro-1H-benzo[d]imidazol-2-yl)ethyl)cyclohexyl)-6-fluoroquinoline]
26.5	CON(C)C(=O)c1ccc2nc([C@H](C)[C@H]3CC[C@@H](c4ccnc5ccc(F)cc54)CC3)[nH]c2c1 [Example B196]
8.1	C[C@@H](c1nc2ccc(C3=NCCO3)cc2[nH]1)[C@H]1CC[C@@H](c2ccnc3ccc(F)cc32)CC1 [Example B197, 2-(2-((R)-1-((1s,4S)-4-(6-fluoroquinolin-4-yl)cyclohexyl)ethyl)-1H-benzo[d]imidazol-6-yl)-4,5-dihydrooxazole]
2.9	CC(=O)c1ccc2nc([C@H](C)[C@H]3CC[C@@H](c4ccnc5ccc(F)cc54)CC3)[nH]c2c1 [Example B202, 1-(2-((R)-1-((1s,4S)-4-(6-fluoroquinolin-4-yl)cyclohexyl)ethyl)-1H-benzo[d]imidazol-6-yl)ethan-1-one]
8.8	CC(c1nc2cc(F)c(F)c(Cl)c2[nH]1)[C@H]1CC[C@@H](c2ccnc3ccc(F)cc32)CC1 (some centres unmarked) [Example B203, 4-((1s,4s)-4-(1-(7-chloro-5,6-difluoro-1H-benzo[d]imidazol-2-yl)ethyl)cyclohexyl)-6-fluoroquinoline]
6.79	C[C@@H](c1nc2c(F)cc(F)c(Cl)c2[nH]1)[C@H]1CC[C@@H](c2ccnc3ccc(F)cc32)CC1 [Example B204, 4-((1R,4s)-4-((S)-1-(7-chloro-4,6-difluoro-1H-benzo[d]imidazol-2-yl)ethyl)cyclohexyl)-6-fluoroquinoline]
28.9	C[C@@H](c1nc2c(F)cc(F)c(Cl)c2[nH]1)[C@H]1CC[C@H](c2ccnc3ccc(F)cc32)CC1 [Example B205, 4-((1R,4r)-4-((R)-1-(7-chloro-4,6-difluoro-1H-benzo[d]imidazol-2-yl)ethyl)cyclohexyl)-6-fluoroquinoline]
27.1	Cc1cc(C(=O)NC2CCC2)cc2[nH]c(C(C)C3CCC(c4ccnc5ccc(F)cc45)CC3)nc12 (centres unmarked) [Example B206, N-cyclobutyl-2-(1-(4-(6-fluoroquinolin-4-yl)cyclohexyl)ethyl)-4-methyl-1H-benzo[d]imidazole-6-carboxamide]
18.4	COC(=O)c1ccc(C(F)(F)F)c2[nH]c(C(C)[C@H]3CC[C@@H](c4ccnc5ccc(F)cc54)CC3)nc12 (some centres unmarked) [Example B207]
62.9	COCCNC(=O)c1ccc2[nH]c(C(C)[C@H]3CC[C@@H](c4ccnc5ccc(F)cc54)CC3)nc2c1 (some centres unmarked) [Example B216, 2-(1-((1s,4s)-4-(6-fluoroquinolin-4-yl)cyclohexyl)ethyl)-N-(2-methoxyethyl)-1H-benzo[d]imidazole-5-carboxamide]
1.2	Cc1noc(-c2ccc3[nH]c(C(C)[C@H]4CC[C@@H](c5ccnc6ccc(F)cc65)CC4)nc3c2)n1 (some centres unmarked) [Example B217]

SMILES	EC50 [nM]
COC(=O)c1c(F)ccc2[nH]c([C@@H](C)[C@H]3CC[C@@H](c4ccnc5ccc(F)cc54)CC3)nc12 [Example B198, methyl 5-fluoro-2-((S)-1-((1s,4R)-4-(6-fluoroquinolin-4-yl)cyclohexyl)ethyl)-1H-benzo[d]imidazole-4-carboxylate]	984
COC(=O)c1c(F)ccc2[nH]c([C@H](C)[C@H]3CC[C@@H](c4ccnc5ccc(F)cc54)CC3)nc12 [Example B199, methyl 5-fluoro-2-((R)-1-((1s,4S)-4-(6-fluoroquinolin-4-yl)cyclohexyl)ethyl)-1H-benzo[d]imidazole-4-carboxylate]	21.9
CCOC(=O)c1cc2nc([C@@H](C)C3CCC(c4ccnc5ccc(F)cc45)CC3)[nH]c2cc1C (stereo partly drawn) [Example B200, ethyl 2-((S)-1-((1s,4S)-4-(6-fluoroquinolin-4-yl)cyclohexyl)ethyl)-6-methyl-1H-benzo[d]imidazole-5-carboxylate]	73.3
CCOC(=O)c1cc2nc([C@H](C)[C@H]3CC[C@@H](c4ccnc5ccc(F)cc54)CC3)[nH]c2cc1C [Example B201, ethyl 2-((R)-1-((1s,4S)-4-(6-fluoroquinolin-4-yl)cyclohexyl)ethyl)-6-methyl-1H-benzo[d]imidazole-5-carboxylate]	1.6
COC(=O)c1cccc2[nH]c([C@H](C)[C@H]3CC[C@@H](c4ccnc5ccc(F)cc54)CC3)nc12 [Example B210, methyl 2-((R)-1-((1s,4S)-4-(6-fluoroquinolin-4-yl)cyclohexyl)ethyl)-1H-benzo[d]imidazole-4-carboxylate]	26.6
C[C@H](c1nc2c(ccc3ccccc32)[nH]1)[C@H]1CC[C@@H](c2ccnc3ccc(F)cc32)CC1 [Example B211, 2-((S)-1-((1s,4R)-4-(6-fluoroquinolin-4-yl)cyclohexyl)ethyl)-3H-naphtho[1,2-d]imidazole]	1.3
C[C@@H](c1nc2c(ccc3ccccc32)[nH]1)[C@H]1CC[C@H](c2ccnc3ccc(F)cc32)CC1 [Example B212, 2-((R)-1-((1r,4R)-4-(6-fluoroquinolin-4-yl)cyclohexyl)ethyl)-3H-naphtho[1,2-d]imidazole]	27.9
